Measurements from PubChem BioAssay (NCI).
In brackets after ≈: the same amount, converted by molar mass.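 How tested: cells in 96-well plates exposed to compound for 48 hours at five concentrations. GI50 = concentration required for 50% inhibition of growth. TGI is the concentration that stops growth completely.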

Legend:
Experiment in all cases: inhibition of tumour cell growth, NCI panel, 48 h
SK-MEL-5 melanoma = test system: SK-MEL-5 melanoma
T-47D breast = test system: T-47D breast
SNB-19 CNS = test system: SNB-19 CNS
OVCAR-4 ovarian = test system: OVCAR-4 ovarian
HT29 colon = test system: HT29 colon
MALME-3M melanoma = test system: MALME-3M melanoma
MCF7 breast = test system: MCF7 breast
HOP-62 NSCLC = test system: HOP-62 NSCLC
K-562 leukemia = test system: K-562 leukemia
SK-OV-3 ovarian = test system: SK-OV-3 ovarian

Row | SMILES | TGI (SK-MEL-5 melanoma) | TGI (T-47D breast) | TGI (SNB-19 CNS) | TGI (OVCAR-4 ovarian) | TGI (HT29 colon) | TGI (MALME-3M melanoma) | TGI (MCF7 breast) | TGI (HOP-62 NSCLC) | TGI (K-562 leukemia) | TGI (SK-OV-3 ovarian) | GI50 (SK-MEL-5 melanoma) | GI50 (HT29 colon) | GI50 (MALME-3M melanoma) | GI50 (K-562 leukemia) | GI50 (T-47D breast) | GI50 (SNB-19 CNS) | GI50 (OVCAR-4 ovarian) | GI50 (MCF7 breast) | GI50 (HOP-62 NSCLC) | GI50 (SK-OV-3 ovarian) [mg/L]
1 | Nc1nc(N)c2c(n1)NC(c1ccccc1)CC(/C=C/c1ccc(Cl)cc1)=N2 (configuration not stated) | 23.4 µM | 30.8 µM | 29.1 µM | 20.5 µM | 15.2 µM | 32.7 µM | 16 µM | 34 µM | 9.61 µM | 29.4 µM |  |  |  |  |  |  |  |  |  | 
2 | CN(CCCNC(=O)c1cn(C)c2c1ccc1cc(Cl)c(Cl)cc12)CCCNC(=O)c1cn(C)c2c1ccc1cc(Cl)c(Cl)cc12 | 28.7 µM | 36.2 µM | 17.9 µM | 25.3 µM | 29.4 µM | 31.8 µM | 19.6 µM | > 57.7 µM | 26.2 µM | 30.7 µM |  |  |  |  |  |  |  |  |  | 
3 | CC(Sc1ccccc1)C(CO)(CO)[N+](=O)[O-] (configuration not stated) | 25.8 µM |  | 43.8 µM | 32.1 µM | 32.9 µM | 38.7 µM |  | 35.5 µM | 34.4 µM | 39.9 µM |  |  |  |  |  |  |  |  |  | 
4 | O=S(=O)(/N=C(\NO)Nc1ccc(Cl)cc1)c1ccc(S(=O)(=O)c2ccccc2)s1 | 24.5 µM | 96.3 µM | > 100 µM | 93.8 µM | 57.7 µM | 41.9 µM | > 100 µM | 82.8 µM | 40.3 µM |  |  |  |  |  |  |  |  |  |  | 
5 | CN(C)CCn1c(=O)c2ccc3c4c(nn3CCN(C)C)c3cc(N)ccc3n(c1=O)c24 | 0.237 µM | 0.849 µM | 0.455 µM | 0.0511 µM |  | 0.257 µM | 1.17 µM | 0.201 µM | 16.7 µM | 0.621 µM |  |  |  |  |  |  |  |  |  | 
6 | N[C@H]1CCN(c2c(F)cc3c(=O)c(C(=O)O)cn4c3c2Oc2cc3c(ccc5ccccc53)cc2-4)C1 | 4.3 µM |  | > 100 µM | > 100 µM | 7.34 µM | > 100 µM | > 100 µM | > 100 µM | > 100 µM | > 100 µM |  |  |  |  |  |  |  |  |  | 
7 | O=CN1CCN(C(=O)c2cc(Cl)cc(Cl)c2)C1=S |  | 36.7 µM | 35 µM | 33.4 µM | 54.5 µM | 20.7 µM | 20.8 µM | 29.7 µM | 97.5 µM | 32.4 µM |  |  |  |  |  |  |  |  |  | 
8 | O=[N+]([O-])c1ccc2c(c1)c(N=NC(=S)NC1CCCCC1)c(O)n2CN1CCOCC1 | 11.3 µM | 17.7 µM | 22.2 µM | 17.9 µM | 17.9 µM | 24.4 µM | 17.4 µM | 23.8 µM | > 100 µM | 25.9 µM |  |  |  |  |  |  |  |  |  | 
9 | C/C(=N\NC(=O)c1cccnc1)c1cccc(/C(C)=N/NC(=O)c2cccnc2)n1 | 7.12 µM |  | > 100 µM |  | > 100 µM | 9.81 µM |  |  | > 100 µM | 82.4 µM | 2.05 µM | 2.63 µM | 2.6 µM | 3.04 µM |  |  |  |  |  | 
10 | CS(=O)(=O)c1nc(-c2cc3c(c(S(C)(=O)=O)n2)CCCC3)cc2c1CCCC2 | > 100 µM | > 100 µM | > 100 µM | > 100 µM | > 100 µM | > 100 µM | > 100 µM | > 57.7 µM | > 100 µM | > 64.7 µM |  |  |  |  |  |  |  |  |  | 
11 | CC(=O)N(C)c1ccc2c(ccc[n+]2[O-])c1[N+](=O)[O-] | > 100 µM |  |  | > 100 µM | > 100 µM | > 100 µM |  | > 100 µM | > 100 µM |  |  |  |  |  |  |  |  |  |  | 
12 | COc1ccc(N=c2ssc(C(=S)Nc3ccc(OC)cc3)c2S)cc1 | > 100 µM | > 100 µM | > 100 µM | > 100 µM | > 100 µM | > 100 µM | > 100 µM | > 100 µM | > 100 µM | > 100 µM |  |  |  |  |  |  |  |  |  | 
13 | CCC(C)C1NC(=O)C2CCCN2C(=O)C(CC2CO2)OC(=O)CCNC(=O)C(C)N(C)C(=O)C(C(C)C)N(C)C1=O (configuration not stated) | < 0.0276 µM | > 100 µM | > 100 µM | > 100 µM | > 100 µM | 0.0641 µM | > 100 µM |  | > 100 µM | > 100 µM |  |  |  |  |  |  |  |  |  | 
14 | C[C@]12CC[C@@H]3c4ccccc4CC[C@H]3[C@@H]1CC[C@@H]2O |  |  | > 100 µM |  |  | > 100 µM |  | > 100 µM | > 100 µM | > 100 µM |  |  |  |  |  |  |  |  |  | 
15 | CN1C2CCC1C(C(O)c1ccccc1[N+](=O)[O-])C(=O)C2 (configuration not stated) | > 100 µM | 87.7 µM | > 100 µM | > 100 µM | > 100 µM | > 100 µM | > 100 µM | > 100 µM | > 100 µM | > 100 µM |  |  |  |  |  |  |  |  |  | 
16 | Nc1ccc2c(c1)C(=O)N(O)C2=O |  |  | > 100 µM | > 100 µM | > 100 µM | > 100 µM |  | > 100 µM | > 100 µM | > 100 µM |  |  |  |  |  |  |  |  |  | 
17 | NCCNc1nc(N2CCCC2)c2nc(Cl)c(NCc3ccccc3)nc2n1 | 3.27 µM | 3.79 µM | 3.91 µM | 5.3 µM | 5.46 µM | 3.73 µM | 3.31 µM | 3.64 µM | 0.182 µM | 3.79 µM |  |  |  |  |  |  |  |  |  | 
18 | OCCOCn1cc(Cn2ncc3c(SCc4ccccc4)ncnc32)nn1 | > 100 µM | > 100 µM | > 100 µM | > 100 µM | > 100 µM | > 100 µM | > 100 µM | > 100 µM | > 100 µM | > 100 µM |  |  |  |  |  |  |  |  |  | 
19 | COC(=O)C1C(C)N1C (configuration not stated) | > 100 µM |  | > 100 µM | > 100 µM | > 100 µM |  |  | > 100 µM | > 100 µM | > 100 µM |  |  |  |  |  |  |  |  |  | 
20 | Clc1ccc(Nc2nc(Cl)c3[nH]cnc3n2)cc1Cl | 52.1 µM | 80.4 µM | > 100 µM | > 100 µM | 43.9 µM | > 100 µM | > 100 µM | 52.5 µM | > 100 µM | > 100 µM |  |  |  |  |  |  |  |  |  | 
21 | COc1ccc(/C=C(\C#N)c2nc(N)nc(N3N=C(C)CC3(C)C)n2)c(O)c1 | 28.5 µM | 34.5 µM | > 100 µM | 30.4 µM | 44.5 µM | 31.7 µM | 45.5 µM | 43.6 µM | 84.7 µM | 65.1 µM |  |  |  |  |  |  |  |  |  | 
22 | COc1c2c(cc3c1C(O)N1CC[C@]34[C@H]3O[C@H]3[C@H](OC)C[C@@H]14)OCO2 (some centres not stated) | > 100 µM | > 100 µM | > 100 µM | > 100 µM | > 100 µM | > 100 µM | > 100 µM | > 100 µM | > 100 µM | 97.1 µM |  |  |  |  |  |  |  |  |  | 
23 | C[C@]12CCC(=O)C=C1CC[C@@H]1[C@@H]2[C@@H](O)C[C@@]2(C)[C@H]1CC[C@]2(O)C(=O)CO | > 100 µM | > 100 µM | > 100 µM | > 100 µM | > 100 µM | > 100 µM | > 100 µM | > 100 µM | > 100 µM | > 100 µM |  |  |  |  |  |  |  |  |  | 
24 | O=S(=O)(O)c1cccc2c(N=Nc3c(O)ccc4ccccc34)cccc12 | > 100 µM | > 100 µM | > 100 µM | > 100 µM | > 100 µM | > 100 µM |  | > 100 µM | > 100 µM | > 100 µM |  |  |  |  |  |  |  |  |  | 
25 | [O-][N+](CCO)(CCO)c1ncnc2nc[nH]c12 | > 100 µM | > 100 µM | > 100 µM | > 100 µM | > 100 µM | > 100 µM | > 100 µM | > 100 µM | > 100 µM | > 100 µM |  |  |  |  |  |  |  |  |  | 
26 | Nc1ccccc1N/C(=C\C(=O)C(Cl)(Cl)Cl)c1ccccc1 | 29 µM | 91.6 µM | > 100 µM | > 100 µM | > 100 µM | 37.7 µM | 83.4 µM | 75.1 µM | > 100 µM | > 100 µM |  |  |  |  |  |  |  |  |  | 
27 | O=C(CCN1CC2CCC(CC2)C1)c1cccs1 | > 100 µM | 24.1 µM | > 100 µM | > 74.6 µM | 61.6 µM | 39.3 µM | 29.4 µM | 45.5 µM | 44 µM | > 53.4 µM |  |  |  |  |  |  |  |  |  | 
28 | O=[n+]1c2c(n([O-])c3ccccc31)-c1cccc3cccc-2c13 | > 100 µM | > 100 µM | > 100 µM | > 100 µM | > 100 µM |  | > 100 µM |  | > 100 µM |  |  |  |  |  |  |  |  |  |  | 
29 | O=C1c2cc3c(cc2-c2c1c1ccc(Cl)cc1c(=O)n2C[C@H](O)[C@@H](O)[C@H](O)CO)OCO3 | 0.0701 µM | 0.29 µM | > 100 µM | > 100 µM | 0.283 µM | 0.505 µM | 0.178 µM | 0.341 µM | > 100 µM |  | 0.0253 µM | 0.0498 µM | 0.0737 µM | 0.0342 µM | 0.0132 µM | 0.0216 µM | 0.177 µM | < 0.01 µM | 0.0186 µM | 
30 | CC1(C)CC(=O)C2=C(C1)NC(SSC1=C(C#N)C(c3ccc(F)cc3)C3=C(CC(C)(C)CC3=O)N1)=C(C#N)C2c1ccc(F)cc1 (configuration not stated) | 44.7 mg/L | 15 mg/L | > 150 mg/L | 52.7 mg/L | 47.2 mg/L | 56.6 mg/L | 72.3 mg/L | > 150 mg/L | > 150 mg/L | 15 mg/L | 22.9 mg/L | 25.1 mg/L | 31.8 mg/L | 17.1 mg/L | 15 mg/L | 77.1 mg/L | 27.7 mg/L | 32.3 mg/L | 108 mg/L | 15 (≈ 22.9 µM)
